Values of other authors in patent publication US9206171B2, “6-{2 -[1-(6-methyl-3-pyridazinyl)-4-piperidinyl]ethoxy}-3-ethoxy-1,2-benzisoxazole bis-dihydrogenphosphate salt (1:2)” (Biota Scientific Management Pty Ltd, priority 2008, dated 2015).

Experiments:
[1] = patients using oral contraceptive formulations
[2] = facile endogenous cleavage of the ester moiety, regardless of excipient

aqueous solubility (in words)	bioavailability (in words) [2]	Structure (SMILES)	interaction with oral contraceptive formulations [1]
–	–	Cc1cc(CCCOc2c(C)cc(-c3noc(C(F)(F)F)n3)cc2C)on1 [Pleconaril]	interact adversely
poor aqueous solubility	poor bioavailability	CCOC(=O)c1ccc(OCCC2CCN(c3ccc(C)nn3)CC2)cc1 [Pirodavir, 4-[2-[1-(6-methyl-3-pyridazinyl)-4-piperidinyl]-ethoxy]benzoate]	–
